Data as given in US10766869B2, “Triazoles for the treatment of demyelinating dieases” (Vertex Pharmaceuticals Incorporated, priority 2015, dated 2020).
Where two headings read alike, the source gives them in different places.

System: primary rat mixed cortical cells
Assay: In vitro myelination assay (MBP positive myelin strands, fold myelin pixels above background)
Format: cell-based
Conditions: Rattus norvegicus; for fold induction at 1 µM: 1.0 μM compound; for fold induction at 10 µM: 10.0 μM compound
Summary of the method: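 Myelination read as total MBP-immunopositive strand pixels per well, imaged at 10× after fixation on day 14 and expressed relative to untreated wells, at 1.0 and 10.0 μM. Cells: dissociated postnatal day 1 rat cortex, cultured two weeks with compound, re-dosed at days 6 and 10.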

[1] = relative to baseline of no added compound, read-out: Fold myelin pixels above background
[2] = relative to baseline of no added compound, read-out: Fold myelin pixels above background, 1.0 μM
[3] = relative to baseline of no added compound, read-out: Fold myelin pixels above background, 10.0 μM
[4] = read-out: Fold myelin pixels above background relative to baseline of no added compound

Structure (SMILES)	fold induction at 1 µM [1]	fold induction at 10 µM [1]	fold induction at 1 µM [2]	fold induction at 10 µM [3]	also measured
C1=C(c2cc(Nc3ncn(-c4ccccc4)n3)cc(N3CCOCC3)c2)COC1 [Compound 465, N-[3-(2,5-dihydrofuran-3-yl)-5-morpholino-phenyl]-1-phenyl-1,2,4-triazol-3-amine]	100 to 1000	≤ 1			
Cc1cc(Nc2ncn(-c3cccc(F)c3)n2)cc(NC2CCN(C3COC3)CC2)c1 [Compound 192, N3-[1-(3-fluorophenyl)-1,2,4-triazol-3-yl]-5-methyl-N1-[1-(oxetan-3-yl)-4-piperidyl]benzene-1,3-diamine]			100 to 1000	≤ 1	
Fc1cc(F)cc(-n2cnc(Nc3cc(C4CC4)nc(N4CC[C@H](F)C4)c3)n2)c1 [Compound 332, 2-cyclopropyl-N-[1-(3,5-difluorophenyl)-1,2,4-triazol-3-yl]-6-[(3S)-3-fluoropyrrolidin-1-yl]pyridin-4-amine]			100 to 1000	10 to 100	
Cc1cc(Nc2ncn(-c3cncc(F)c3)n2)cc(N2CCN(C3COC3)CC2)c1 [Compound 24, 1-(5-fluoro-3-pyridyl)-N-[3-methyl-5-[4-(oxetan-3-yl)piperazin-1-yl]phenyl]-1,2,4-triazol-3-amine]			10 to 100	100 to 1000	
Cc1cc(Nc2ncn(-c3cccc(F)c3)n2)cc(NC2CCN(C3COC3)C2)c1 (centres unmarked) [Compound 188, N3-[1-(3-fluorophenyl)-1,2,4-triazol-3-yl]-5-methyl-N1-[1-(oxetan-3-yl)pyrrolidin-3-yl]benzene-1,3-diamine]			100 to 1000	≤ 1	
Fc1cc(F)cc(-n2cnc(Nc3cc(C4CCOCC4)nc(C4CC4)c3)n2)c1 [Compound 407, 2-cyclopropyl-N-[1-(3,5-difluorophenyl)-1,2,4-triazol-3-yl]-6-tetrahydropyran-4-yl-pyridin-4-amine]	1000 to 10000	≤ 1			
COC1CN(c2cc(F)cc(-n3cnc(Nc4cc(C5CC5)cc(N5CCN(C6COC6)CC5)c4)n3)c2)C1 [Compound 494, N-[3-cyclopropyl-5-[4-(oxetan-3-yl)piperazin-1-yl]phenyl]-1-[3-fluoro-5-(3-methoxyazetidin-1-yl)phenyl]-1,2,4-triazol-3-amine]	100 to 1000	10 to 100			
Cc1cc(Nc2ncn(-c3cc(F)cc(F)c3)n2)cc(N2CCC(N3CCOCC3C)CC2)c1 (centres unmarked) [Compound 988, 1-(3,5-difluorophenyl)-N-[3-methyl-5-[4-(3-methylmorpholin-4-yl)-1-piperidyl]phenyl]-1,2,4-triazol-3-amine]					fold induction at 1 µM [4]: 10 to 100; fold induction at 10 µM [4]: 1 to 10
Cc1cc(Nc2ncn(-c3cccc(Cl)n3)n2)cc(N2CCCC2)c1 [Compound 488, 1-(6-chloro-2-pyridyl)-N-(3-methyl-5-pyrrolidin-1-yl-phenyl)-1,2,4-triazol-3-amine]	≤ 1	≤ 1			
Cc1cc(Nc2ncn(-c3cc(F)nc(F)c3)n2)cc(N2CCN(C3COC3)CC2)c1 [Compound 232, 1-(2,6-difluoro-4-pyridyl)-N-[3-methyl-5-[4-(oxetan-3-yl)piperazin-1-yl]phenyl]-1,2,4-triazol-3-amine]			10 to 100	10 to 100	
Cc1cc(Nc2ncn(-c3cc(F)cc(F)c3)n2)cc(NC2CCN(C3CCOCC3)CC2)c1 [Compound 1013, N3-[1-(3,5-difluorophenyl)-1,2,4-triazol-3-yl]-5-methyl-N1-(1-tetrahydropyran-4-yl-4-piperidyl)benzene-1,3-diamine]					fold induction at 1 µM [4]: 10 to 100; fold induction at 10 µM [4]: ≤ 1
Cc1cc(Nc2ncn(-c3cccc(C(F)(F)F)c3)n2)nc(N2CCOCC2)c1 [Compound 837, 4-methyl-6-morpholino-N-[1-[3-(trifluoromethyl)phenyl]-1,2,4-triazol-3-yl]pyridin-2-amine]					fold induction at 1 µM [4]: 1 to 10; fold induction at 10 µM [4]: 10 to 100
Cc1cc(Nc2ncn(-c3cc(F)cc(F)c3)n2)cc(N2CCC(OCCF)CC2)c1 [Compound 950, 1-(3,5-difluorophenyl)-N-[3-[4-(2-fluoroethoxy)-1-piperidyl]-5-methyl-phenyl]-1,2,4-triazol-3-amine]					fold induction at 1 µM [4]: 10 to 100; fold induction at 10 µM [4]: 1 to 10
Cc1cc(Nc2ncn(-c3ccc(F)c(F)c3)n2)cc(N2CC(N3CCCOCC3)C2)c1 [Compound 659, 1-(3,4-difluorophenyl)-N-[3-methyl-5-[3-(1,4-oxazepan-4-yl)azetidin-1-yl]phenyl]-1,2,4-triazol-3-amine]	10 to 100	10 to 100			
Cc1cc(Nc2ncn(-c3cc(F)cc(F)c3)n2)nc(N2CCN(C3CCOC3)CC2)c1 (centres unmarked) [Compound 562, N-[1-(3,5-difluorophenyl)-1,2,4-triazol-3-yl]-4-methyl-6-(4-tetrahydrofuran-3-ylpiperazin-1-yl)pyridin-2-amine]	1 to 10	1 to 10			
Cc1cc(Nc2ncn(-c3cc(F)cc(F)c3)n2)cc(N2CCN(C)C(C)(C)C2)c1 [Compound 771, 1-(3,5-difluorophenyl)-N-[3-methyl-5-(3,3,4-trimethylpiperazin-1-yl)phenyl]-1,2,4-triazol-3-amine]	10 to 100	≤ 1			
Cc1cc(Nc2ncn(-c3ccc(F)c(F)c3)n2)cc(O[C@@H]2CCN(C3COC3)C2)c1 [Compound 46, 1-(3,4-difluorophenyl)-N-[3-methyl-5-[(3R)-1-(oxetan-3-yl)pyrrolidin-3-yl]oxy-phenyl]-1,2,4-triazol-3-amine]			1000 to 10000	1 to 10	
Fc1cc(F)cc(-n2cnc(Nc3cc(C(F)F)cc(N4CCCC5(COC5)C4)n3)n2)c1 [Compound 777, 4-(difluoromethyl)-N-[1-(3,5-difluorophenyl)-1,2,4-triazol-3-yl]-6-(2-oxa-8-azaspiro[3.5]nonan-8-yl)pyridin-2-amine]	1 to 10	10 to 100			
Cc1cc(Nc2ncn(-c3cc(F)cc(F)c3)n2)cc(N2CCOC3(CCOCC3)CC2)c1 [Compound 906, 1-(3,5-difluorophenyl)-N-[3-(3,7-dioxa-10-azaspiro[5.6]dodecan-10-yl)-5-methyl-phenyl]-1,2,4-triazol-3-amine]					fold induction at 1 µM [4]: 10 to 100; fold induction at 10 µM [4]: 1 to 10
[2H]C1([2H])OC([2H])([2H])C([2H])([2H])N(c2cc(C)cc(Nc3ncn(-c4cc(F)cc(F)c4)n3)c2)C1([2H])[2H] [Compound 982, 1-(3,5-difluorophenyl)-N-[3-methyl-5-(2,2,3,3,5,5,6,6-octadeuteriomorpholin-4-yl)phenyl]-1,2,4-triazol-3-amine]					fold induction at 1 µM [4]: 10 to 100; fold induction at 10 µM [4]: ≤ 1
Cc1cc(Nc2ncn(-c3cc(F)cc(F)c3)n2)cc(C2(C)CN(C)C(=O)O2)c1 (centres unmarked) [Compound 613, 5-[3-[[1-(3,5-difluorophenyl)-1,2,4-triazol-3-yl]amino]-5-methyl-phenyl]-3,5-dimethyl-oxazolidin-2-one]	10 to 100	1 to 10			
Cc1cc(Nc2ncn(-c3ccccc3)n2)cc(C2CCN(C3(CS(=O)(=O)c4ccccc4)COC3)CC2)c1 [Compound 51, N-[3-[1-[3-(benzenesulfonylmethyl)oxetan-3-yl]-4-piperidyl]-5-methyl-phenyl]-1-phenyl-1,2,4-triazol-3-amine]			100 to 1000	100 to 1000	
